Experimental findings from PubChem BioAssay AID351 (ChemBlock, 2006) are described below.

Square brackets hold non-standard residues; d marks the D form. Peptide text beside a SMILES is read from it. * marks the point of attachment. ξ: configuration not given here. X1 = COC1=CC(=O)N(C(=O)C(O*)C(C)C)C1Cc1ccccc1; ξNMe2Val = CC(C)C(C(=O)*)N(C)C; NMeV = CN[CH](C(=O)O)C(C)C

The subject of the experiment is sea urchin embryo, cleavage alteration, microscopy. Kind of experiment: sea urchin embryo cleavage alteration, tubulin destabilizer project, whole organism, microscopy (AID 351).
`COc1ccc(C2=N[C@H](c3ccc(OC)cc3)[C@H](c3ccc(OC)cc3)N2)cc1`: the threshold concentration is 500 nM.

Consider `O=C(Nc1ccncc1)C(=O)c1cn(Cc2ccc(Cl)cc2)c2ccccc12`, for which the threshold concentration is 10 nM.

Regarding `Nc1cn[nH]c1-c1nc(-c2cccc(F)c2)n[nH]1`, the threshold concentration was 500 nM.

On to `COc1ccc(-c2nnc(-c3ccc(OC)c(OC)c3)o2)cc1OC`, for which the threshold concentration was 500 nM.

With `COc1cc2c(cc1O)CCC1C2CCC2(C)C(O)CCC12` (stereo not drawn), the threshold concentration was 200 nM.

For `O=C(Nc1ccc2c(c1)OCCO2)C(=O)c1c[nH]c2ccccc12`, the threshold concentration is 2 nM.

Consider `COC(=O)Nc1nc2ccc(C(=O)c3cccs3)cc2[nH]1`, for which the threshold concentration is 5 nM.

Regarding `COc1cc(N)c(-c2nnc(Nc3ccc4c(c3)OCO4)o2)c(OC)c1`, the threshold concentration is 50 nM.

On to `COC1=CC(=O)N(C(=O)C(OC(=O)C2CCCN2C(=O)C2CCCN2C(=O)C(C(C)C)N(C)C(=O)C(NC(=O)C(C(C)C)N(C)C)C(C)C)C(C)C)C1Cc1ccccc1` (stereo not drawn) (ξNMe2Val-V[NMeV]PP-X1; configuration not given here), for which the threshold concentration was 5 nM.

For the compound `CCOc1ccc(Nc2nc(-c3c(C)nc4sccn34)cs2)cc1`, the threshold concentration was 50 nM.

On to `Cc1cc(NC(=O)C(=O)c2cn(Cc3ccc(Cl)cc3)c3ccccc23)no1`, for which the threshold concentration was 10 nM.

On to `c1ccc(-c2nnc(Nc3ccc4c(c3)OCCO4)o2)c(NCc2ccncc2)c1`, for which the threshold concentration is 0.5 nM.

With `Cc1ccc(Nc2nc(-c3c(C)nc4sccn34)cs2)cc1`, the threshold concentration is 5 nM.

As for `CCC1=CCN2CCC34c5cc(C6(C(=O)OC)CC7CN(CCc8c6[nH]c6ccccc86)CC(O)(CC)C7)c(OC)cc5N(C)C3C(O)(C(=O)OC)C(OC(C)=O)C1C24` (stereo not drawn), the threshold concentration was 200 nM.

For `COc1ccc(-c2nnc(Nc3ccc4c(c3)OCCO4)o2)c(N)c1`, the threshold concentration was 25 nM.

Consider `Nc1csnc1-c1nnc(Nc2ccc(Cl)cc2)o1`, for which the threshold concentration is 200 nM.

As to `CCOc1ccc(Nc2nc(-c3c(C)nc4cc(C)ccn34)cs2)cc1`, the threshold concentration was 200 nM.

Regarding `COc1ccc(-c2nc3sc4c(c3c(=O)[nH]2)CCCC4)c2ccccc12`, the threshold concentration is 50 nM.
